Reference: patent US20050009924A1 (priority 2003, published 2005)

How the values were obtained:
[1] = system: transcriptional activity of hTERT; assay: SEAP reporter assay of hTERT expression, PhTERT-SEAP (hTERT-BJ1); assay type: cell-based, human; settings: PhTERT-SEAP (hTERT-BJ1)
Outline: (§1)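 We treated G418-selected reporter cells with varying drug amounts for 24 h and measured SEAP in the heat-inactivated medium as the rate of 405 nm absorbance increase.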

[2] = system: non-small-cell lung cancer cells H1299; assay: MTT relative viability, PhTERT-SEAP (H1299) cells; settings: PhTERT-SEAP(hTERT-H1299)
[3] = system: human hepatoma G2 cells; assay: Cytotoxicity assay (XTT colorimetric), Hep G2; assay type: cell-based; settings: 48 h of drug exposure
[4] = system: hepatitis B virus transfected hepatoma cell lines, HepG 2.2.15 cells; assay: Cytotoxicity assay, 2.2.15 cells; assay type: cell-based, human; settings: 48 h of drug exposure
[5] = system: rat glioma C6 cells; assay: Cytotoxicity assay (XTT colorimetric), C6 cells; assay type: cell-based; settings: 48 h of drug exposure
[6] = system: transcriptional activity of hTERT; assay: SEAP reporter assay of hTERT expression, PhTERT-SEAP (H1299); assay type: cell-based, human; settings: PhTERT-SEAP(hTERT-H1299)
Outline: as §1

[7] = system: hTERT-BJ1 cells; assay: MTT relative viability, PhTERT-SEAP (hTERT-BJ1) cells; settings: PhTERT-SEAP (hTERT-BJ1)

In the case of `O=C(Nc1ccc(NC(=O)c2cc(F)cc(Cl)c2Cl)c2c1C(=O)c1ccccc1C2=O)c1cc(F)cc(Cl)c1Cl` [VI23], the “Relative SEAP activity (%)” value ([1]; 1.6 μM) is reported as 113 ± 16.0%, the SEAP/vibility ([1]; 1.6 μM) is reported as 1.02 and the “Relative SEAP activity (%)” value ([1]; 16 μM) is reported as 131 ± 19.1%. For the same molecule, the SEAP/vibility ([1]; 16 μM) was 1.20, the “Relative SEAP activity (%)” value ([1]; 161 μM) was 106 ± 17.3% and the SEAP/vibility ([1]; 161 μM) was 1.05. The “Relative MTT viability (%)” value ([2]; 1.6 μM) was 98 ± 7.0%, the “Relative MTT viability (%)” value ([2]; 16 μM) was 103 ± 8.7% and the “Relative MTT viability (%)” value ([2]; 161 μM) was 87 ± 5.1%. It also gave an IC50 [3] of over 20 µM, an IC50 [4] of over 20 µM and an IC50 [5] of over 20 µM. The “Relative SEAP activity (%)” value ([6]; 1.6 μM) was 102 ± 4.1%, the SEAP/vibility ([6]; 1.6 μM) was 1.04 and the “Relative SEAP activity (%)” value ([6]; 16 μM) was 102 ± 5.1%. For the same molecule, the SEAP/vibility ([6]; 16 μM) was 0.99, the “Relative SEAP activity (%)” value ([6]; 161 μM) was 83 ± 4.0% and the SEAP/vibility ([6]; 161 μM) was 0.95. The “Relative MTT viability (%)” value ([7]; 1.6 μM) was 111 ± 6.8%, the “Relative MTT viability (%)” value ([7]; 16 μM) was 110 ± 7.1% and the “Relative MTT viability (%)” value ([7]; 161 μM) was 101 ± 6.6%.

With `O=C(Nc1ccc(NC(=O)c2ccco2)c2c1C(=O)c1ccccc1C2=O)c1ccco1` [VI24, 1,4-Bis(2-furoylamido)-9,10-anthracenedione] the “Relative SEAP activity (%)” value ([1]; 2.3 μM) was 39 ± 7.8%, the SEAP/vibility ([1]; 2.3 μM) was 0.43 and the “Relative SEAP activity (%)” value ([1]; 23 μM) was 45 ± 11.0%. For the same molecule, the SEAP/vibility ([1]; 23 μM) was 0.65, the “Relative SEAP activity (%)” value ([1]; 234 μM) was 37 ± 15.0% and the SEAP/vibility ([1]; 234 μM) was 0.51. For the same molecule, the “Relative MTT viability (%)” value ([2]; 2.3 μM) was 101 ± 6.0%, the “Relative MTT viability (%)” value ([2]; 23 μM) was 75 ± 3.9% and the “Relative MTT viability (%)” value ([2]; 234 μM) was 32 ± 5.1%. It also gave an IC50 [3] of over 20 µM, an IC50 [4] of over 20 µM and an IC50 [5] of over 20 µM. For the same molecule, the “Relative SEAP activity (%)” value ([6]; 2.3 μM) was 99 ± 7.8%, the SEAP/vibility ([6]; 2.3 μM) was 0.99 and the “Relative SEAP activity (%)” value ([6]; 23 μM) was 97 ± 4.6%. For the same molecule, the SEAP/vibility ([6]; 23 μM) was 1.30, the “Relative SEAP activity (%)” value ([6]; 234 μM) was 90 ± 2.9% and the SEAP/vibility ([6]; 234 μM) was 2.83. For the same molecule, the “Relative MTT viability (%)” value ([7]; 2.3 μM) was 91 ± 9.5%, the “Relative MTT viability (%)” value ([7]; 23 μM) was 69 ± 10.7% and the “Relative MTT viability (%)” value ([7]; 234 μM) was 72 ± 11.3%.

In the case of `Cc1cc(C(=O)Nc2ccc(NC(=O)c3cc(C)oc3C)c3c2C(=O)c2ccccc2C3=O)c(C)o1` [VI26, 1,4-Bis(2,5-dimethylfuran-3-carbonylamido)-9,10-anthracenedione], the “Relative SEAP activity (%)” value ([1]; 2.0 μM) is reported as 84 ± 13.3%, the SEAP/vibility ([1]; 2.0 μM) is reported as 0.83 and the “Relative SEAP activity (%)” value ([1]; 20 μM) is reported as 79 ± 14.7%. For the same molecule, the SEAP/vibility ([1]; 20 μM) was 0.78, the “Relative SEAP activity (%)” value ([1]; 207 μM) was 81 ± 16.1% and the SEAP/vibility ([1]; 207 μM) was 0.88. For the same molecule, the “Relative MTT viability (%)” value ([2]; 2.0 μM) was 87 ± 4.9%, the “Relative MTT viability (%)” value ([2]; 20 μM) was 71 ± 2.3% and the “Relative MTT viability (%)” value ([2]; 207 μM) was 47 ± 2.6%. The IC50 [3] was over 20 µM, the IC50 [4] was over 20 µM and the IC50 [5] was over 20 µM. For the same molecule, the “Relative SEAP activity (%)” value ([6]; 2.0 μM) was 104 ± 10.8%, the SEAP/vibility ([6]; 2.0 μM) was 1.20 and the “Relative SEAP activity (%)” value ([6]; 20 μM) was 103 ± 10.0%. For the same molecule, the SEAP/vibility ([6]; 20 μM) was 1.46, the “Relative SEAP activity (%)” value ([6]; 207 μM) was 98 ± 10.5% and the SEAP/vibility ([6]; 207 μM) was 2.10. The “Relative MTT viability (%)” value ([7]; 2.0 μM) was 101 ± 6.2%, the “Relative MTT viability (%)” value ([7]; 20 μM) was 101 ± 5.8% and the “Relative MTT viability (%)” value ([7]; 207 μM) was 93 ± 7.1%.

With `O=C(CSc1ccccc1)Nc1ccc(NC(=O)CSc2ccccc2)c2c1C(=O)c1ccccc1C2=O` [VI28, 1,4-Bis(phenylthioacetamido)-9,10-anthracenedione] the “Relative SEAP activity (%)” value ([1]; 1.8 μM) was 14 ± 14.7%, the SEAP/vibility ([1]; 1.8 μM) was 0.12 and the “Relative SEAP activity (%)” value ([1]; 18 μM) was 23 ± 9.5%. For the same molecule, the SEAP/vibility ([1]; 18 μM) was 0.21, the “Relative SEAP activity (%)” value ([1]; 185 μM) was 7 ± 9.6% and the SEAP/vibility ([1]; 185 μM) was 0.12. The “Relative MTT viability (%)” value ([2]; 1.8 μM) was 104 ± 5.6%, the “Relative MTT viability (%)” value ([2]; 18 μM) was 96 ± 4.3% and the “Relative MTT viability (%)” value ([2]; 185 μM) was 59 ± 3.8%. It also gave an IC50 [3] of over 20 µM, an IC50 [4] of over 20 µM and an IC50 [5] of over 20 µM. The “Relative SEAP activity (%)” value ([6]; 1.8 μM) was 93 ± 3.2%, the SEAP/vibility ([6]; 1.8 μM) was 0.89 and the “Relative SEAP activity (%)” value ([6]; 18 μM) was 92 ± 3.5%. For the same molecule, the SEAP/vibility ([6]; 18 μM) was 0.96, the “Relative SEAP activity (%)” value ([6]; 185 μM) was 80 ± 4.0% and the SEAP/vibility ([6]; 185 μM) was 1.35. The “Relative MTT viability (%)” value ([7]; 1.8 μM) was 115 ± 4.8%, the “Relative MTT viability (%)” value ([7]; 18 μM) was 105 ± 6.7% and the “Relative MTT viability (%)” value ([7]; 185 μM) was 60 ± 2.3%.
